The nature of this series: collision cross section in nitrogen (drift tube, single-field); higher = larger gas-phase ion size.
Setting [1] is: ion type: [M+H], ion source: APCI, ion mode: Positive.
The mark [2] stands for this setting: ion type: [M+H], ion source: ESI, ion mode: Positive.
Setting [3] is: ion type: [M+Na], ion source: ESI, ion mode: Positive.
[4] abbreviates: ion type: [M-H], ion source: ESI, ion mode: Negative.

Structures can show the parent of a compound that is named as a salt.
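Also: chemical standards at 10 µM analysed by drift tube IMS-QTOF MS in about 3.95 torr nitrogen, mean of duplicate injections differing ≤1%, mass error below 10 ppm.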

On to `CCCCCCCCCCCCN(CCO)CCO` [Lauryldiethanolamine], for which the “collision cross section in nitrogen” value under setting [1] is 183.7 Å², the “collision cross section in nitrogen” value under setting [2] is given as 184.1 Å² and the “collision cross section in nitrogen” value under setting [3] turned out to be 180.3 Å².

For `Cc1ccnc2ccccc12` [Lepidine], the “collision cross section in nitrogen” value under setting [1] was 126.3 Å²; the “collision cross section in nitrogen” value under setting [2] is on record as 125.4 Å²; the “collision cross section in nitrogen” value (ion type: [M+], ion source: APCI, ion mode: Positive) came to 125.4 Å².

Take `CN(C)c1ccc(C(c2ccccc2)c2ccc(N(C)C)cc2)cc1` [Leucomalachite green]: the “collision cross section in nitrogen” value came to 199.9 Å² under setting [1] and 198.9 Å² under setting [2].

For the compound `c1ccc([C@H]2CN3CCSC3=N2)cc1` [Levamisole hydrochloride], the “collision cross section in nitrogen” value was 144.2 Å² under setting [1], 144.8 Å² under setting [2] and 155.8 Å² under setting [3].

In the case of `N[C@@H](Cc1ccc(O)c(O)c1)C(=O)O` [Levodopa], under setting [4], the “collision cross section in nitrogen” value stood at 141.6 Å².

As for `N[C@@H](Cc1cc(I)c(Oc2cc(I)c(O)c(I)c2)c(I)c1)C(=O)O` [Levothyroxine], the “collision cross section in nitrogen” value under setting [2] was found to be 213.4 Å².

Take `C=CC(C)(CCC=C(C)C)OC(C)=O` (centres undefined) [Linalyl acetate]: under setting [4], the “collision cross section in nitrogen” value is given as 152 Å².

`CCCCC/C=C\C/C=C\CCCCCCCC(=O)O` [Linoleic acid]: the “collision cross section in nitrogen” value under setting [4] worked out at 175.2 Å².

As for `CON(C)C(=O)Nc1ccc(Cl)c(Cl)c1` [Linuron], the “collision cross section in nitrogen” value under setting [4] is given as 151.1 Å².

Turning to `O=C(O)c1cc(C(=O)O)cc(S(=O)(=O)O)c1` [Lithium 3-carboxy-5-sulfobenzoate], the “collision cross section in nitrogen” value under setting [4] is reported as 147.3 Å².

Regarding `O=S(=O)(NS(=O)(=O)C(F)(F)F)C(F)(F)F` [Lithium bis[(trifluoromethyl)sulfonyl]azanide], the “collision cross section in nitrogen” value under setting [4] came out at 129.9 Å².

For the compound `O=S(=O)(O)C(F)(F)C(F)(F)C(F)(F)C(F)(F)C(F)(F)C(F)(F)C(F)(F)C(F)(F)F` [Lithium perfluorooctanesulfonate], the “collision cross section in nitrogen” value under setting [4] was found to be 168.3 Å².

Regarding `C[C@H](CCC(=O)O)[C@H]1CC[C@H]2[C@@H]3CC[C@@H]4C[C@H](O)CC[C@]4(C)[C@H]3CC[C@]12C` [Lithocholic acid], the “collision cross section in nitrogen” value under setting [4] came out at 203 Å².

Turning to `CCOC(=O)N1CCC(=C2c3ccc(Cl)cc3CCc3cccnc32)CC1` [Loratadine], the “collision cross section in nitrogen” value runs as follows: under setting [1], 187.9 Å²; under setting [2], 187.4 Å²; under setting [3], 195.1 Å².

On to `CCCCc1nc(Cl)c(CO)n1Cc1ccc(-c2ccccc2-c2nnn[nH]2)cc1` [Losartan potassium], for which the “collision cross section in nitrogen” value was determined as 201.6 Å² under setting [1], 201.2 Å² under setting [2], 204.9 Å² under setting [3] and 203.4 Å² under setting [4].

Regarding `CC[C@H](C)C(=O)O[C@H]1C[C@@H](C)C=C2C=C[C@H](C)[C@H](CC[C@@H]3C[C@@H](O)CC(=O)O3)[C@H]21` [Lovastatin], under setting [3], the “collision cross section in nitrogen” value is given as 203.9 Å².

Consider `O=C(NC(=O)c1c(F)cccc1F)Nc1cc(Cl)c(OC(F)(F)C(F)C(F)(F)F)cc1Cl` (centres undefined) [Lufenuron], for which, under setting [4], the “collision cross section in nitrogen” value amounted to 205.4 Å².

`CCCCc1ccc2c(n1)[C@@H](c1ccc(OC)cc1C[C@H](C)C(=O)O)[C@H](C(=O)O)[C@H]2c1ccc2c(c1)OCO2` [MK-547]: the “collision cross section in nitrogen” value is 231 Å² under setting [1], 230.9 Å² under setting [2], 234.1 Å² under setting [3] and 236.4 Å² under setting [4].

For `CCn1nc(Cc2ccccc2)cc1C1CCN(C[C@H]2C[C@H](N(C)[C@@H](C(=O)O)C(C)C)C[C@@H]2c2cccc(F)c2)CC1` [MK-578], the “collision cross section in nitrogen” value is, setting by setting: under setting [1], 243.1 Å²; under setting [2], 243.4 Å²; under setting [3], 241.9 Å²; under setting [4], 247.7 Å².

Take `CO[C@@H]1COCC[C@@H]1N[C@@H]1CC[C@@](C(=O)N2CCc3ncc(C(F)(F)F)cc3C2)(C(C)C)C1` [MK-812]: the “collision cross section in nitrogen” value runs as follows: under setting [2], 214.6 Å²; under setting [3], 219.6 Å²; under setting [4], 207.8 Å².

Turning to `Fc1ccccc1[C@@H](F)CO[C@H]1CC[C@H](Nc2[nH]cnc3nncc2-3)CC1` [MK-968], the “collision cross section in nitrogen” value under setting [1] was found to be 187.8 Å², the “collision cross section in nitrogen” value under setting [2] was determined as 187.7 Å², the “collision cross section in nitrogen” value under setting [3] is reported as 191.4 Å² and the “collision cross section in nitrogen” value under setting [4] is on record as 198.9 Å².

Values taken from the supplement of paper PMC12317010.
